Data reported in patent US9079913B2, “Spiro-oxindole MDM2 antagonists” (The Regents of the University of Michigan, priority 2009, dated 2015).
Read-outs that look alike come from different tables or passages of the source.

How the values were obtained:
[1] = tested on: cancer cell lines with wild-type p53 / mutated or deleted p53 (ATCC); assay: Cell growth assay (WST-8), other cancer cell lines; assay type: cell-based
[2] = tested on: Isogenic HCT-116 colon cancer cell lines; assay: cells; assay type: cell-based;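 note: cells grown in 96-well plates in McCoy's 5A medium with 10% FBS, exposed to compound for 4 days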
Protocol: Cells were seeded in 96-well flat bottom cell culture plates at a density of 2−3×10^3 cells/well with compounds and incubated for 4 days.

[3] = target: recombinant human His-tagged MDM2 protein (residues 1-118) (Homo sapiens (Human), UniProt Q00987); assay: Fluorescence-polarization MDM2 binding assay;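 note: fluorescence polarization read after three hours of incubation in potassium phosphate buffer containing bovine gamma globulin and Triton X-100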
recombinant human His-tagged MDM2 protein (residues 1-118), sequence (Q00987 1-118): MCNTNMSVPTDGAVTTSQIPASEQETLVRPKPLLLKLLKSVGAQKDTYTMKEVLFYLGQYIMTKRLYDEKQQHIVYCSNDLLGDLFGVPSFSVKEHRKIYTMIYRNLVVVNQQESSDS

[4] = Homo sapiens, LNCaP, Table 19B, LNCaP cells, read-out: Inhibition of cell growth IC50, LNCaP
[5] = Homo sapiens, PC-3, Table 19B, PC3 cells, read-out: Inhibition of cell growth IC50, PC3
[6] = Homo sapiens, HCT-116, read-out: Inhibition of cell growth IC50, HCT116 p53 KO, Table 19B, HCT116 p53 KO
[7] = Homo sapiens, HCT-116, read-out: Inhibition of cell growth IC50, HCT116 p53 WT, Table 19B, HCT116 p53 WT
[8] = Table 19B, read-out: Binding affinities to MDM2 protein as determined by FP based assay IC50
[9] = Homo sapiens, SJSA-1, Table 19A, SJSA-1 cells, p53 wild-type, cell growth, read-out: SJSA-1 (p53 wild-type) IC50
[10] = Homo sapiens, HCT-116, read-out: HCT-116 (p53-/-) IC50, Table 19A, HCT-116 p53-/-, cell growth
[11] = Homo sapiens, HCT-116, read-out: HCT-116 (p53 wild-type) IC50, Table 19A, HCT-116 p53 wild-type, cell growth
[12] = Table 19A, FP binding assay, read-out: MDM2 IC50
[13] = Homo sapiens, LNCaP, Table 19D, LNCaP cells, read-out: LNCaP IC50
[14] = Homo sapiens, PC-3, Table 19D, PC3 cells, read-out: PC3 IC50
[15] = Homo sapiens, HCT-116, read-out: HCT116p53KO IC50, Table 19D, HCT116 p53KO
[16] = Homo sapiens, HCT-116, read-out: HCT116p53WT IC50, Table 19D, HCT116 p53WT
[17] = Table 19D, read-out: MDM2 Binding Affinities IC50
[18] = Homo sapiens, LNCaP, Table 19A, LNCAP cells, p53 wild-type, cell growth, read-out: LNCAP (p53 wild-type) IC50
[19] = Homo sapiens, PC-3, Table 19A, PC-3 cells, deleted p53, cell growth, read-out: PC-3 (deleted p53) IC50
[20] = Homo sapiens, LNCaP, Table 19C, LNCaP cells, read-out: Cell growth inhibition using WST assay, LNCaP IC50
[21] = Homo sapiens, PC-3, Table 19C, PC3 cells, read-out: Cell growth inhibition using WST assay, PC3 IC50
[22] = Homo sapiens, HCT-116, read-out: Cell growth inhibition using WST assay, HCT116 p53KO IC50, Table 19C, HCT116 p53KO
[23] = Homo sapiens, HCT-116, read-out: Cell growth inhibition using WST assay, HCT116 p53WT IC50, Table 19C, HCT116 p53WT
[24] = Table 19C, read-out: Bidning affinities to MDM2 as determined using FP assay IC50

SMILES | IC50 [1, 4] [µM] | IC50 [1, 5] [µM] | IC50 [2, 6] [µM] | IC50 [2, 7] [µM] | IC50 [3, 8] [µM] | IC50 [2, 10] [µM] | IC50 [2, 11] [µM] | IC50 [3, 12] [µM] | IC50 [1, 18] [µM] | also measured
CC(C)CC[C@H]1N[C@@H](C(=O)NCC[C@H](O)CO)[C@H](c2cccc(Cl)c2)[C@@]12C(=O)Nc1cc(Cl)c(F)cc12 [MI-705] | 1.4 ± 0.8 | 43.9 ± 31.7 | 32 ± 33.3 | 4.4 ± 4 | < 10 |  |  |  |  | 
CC(C)(C)C[C@H]1N[C@@H](C(=O)NCC[C@H](O)CO)[C@H](c2cccc(Cl)c2)[C@@]12C(=O)Nc1c(Cl)cccc12 [MI-727] | 12.2 ± 0.5 | 21.4 ± 4.8 | 20.9 ± 1.1 | 24.1 ± 0.7 | > 10 |  |  |  |  | 
CC(=O)N1CCC(NC(=O)[C@@H]2N[C@H](CC(C)(C)C)[C@]3(C(=O)Nc4cc(Cl)ccc43)[C@H]2c2cccc(Cl)c2F)CC1 [MI-783] |  |  |  |  |  | 18.5 | 0.9 | < 0.5 |  | IC50 [1, 9]: 1.1 µM
CN1[C@@H](C(=O)NCC[C@H](O)CO)[C@H](c2cccc(Cl)c2F)[C@@]2(C(=O)Nc3cc(F)c(F)cc32)[C@H]1CC(C)(C)C [MI-519-10-me] |  |  |  |  |  |  |  |  |  | IC50 [1, 13]: > 1 µM; IC50 [1, 14]: > 30 µM; IC50 [2, 15]: > 30 µM; IC50 [2, 16]: > 1 µM; IC50 [3, 17]: < 10 µM
CC(C)(C)C[C@H]1N[C@@H](C(=O)NCCN2CC[C@H](O)C2)[C@H](c2cccc(Cl)c2)[C@@]12C(=O)Nc1cc(Cl)c(F)cc12 [MI-519-35] |  |  |  |  |  | 5.3 ± 0.6 | 1.8 ± 0.5 | < 1 | 1.4 ± 0.5 | IC50 [1, 19]: 6.7 ± 0.9 µM
O=C(NC1CCC(O)CC1)[C@@H]1N[C@H](C=C2CCCC2)[C@]2(C(=O)Nc3cc(Cl)ccc32)[C@H]1c1cccc(Cl)c1F (stereo partly drawn) [MI-792] |  |  |  |  |  | > 20 | < 10 | < 5 | < 10 | IC50 [1, 19]: > 20 µM; IC50 [1, 9]: < 10 µM
CC(C)(C)C[C@H]1N[C@@H](C(=O)NC2CCN(CCF)CC2)[C@H](c2cccc(Cl)c2F)[C@@]12C(=O)Nc1cc(Cl)ccc12 [MI-519-56] |  |  |  |  |  |  | < 1 | < 1 | > 10 | IC50 [1, 9]: < 1 µM
CC(C)(C)C[C@H]1N[C@@H](C(=O)NC2CCC(OC(=O)[C@@H](N)Cc3ccccc3)CC2)[C@H](c2cccc(Cl)c2F)[C@@]12C(=O)Nc1cc(Cl)ccc12 (stereo partly drawn) [MI-910] |  |  |  |  |  | 9.8 | < 3 | < 1 | < 3 | IC50 [1, 19]: 7 µM; IC50 [1, 9]: < 3 µM
CC(C)(C)C[C@H]1N[C@@H](C(=O)NC2CCC(OC(=O)[C@H](Cc3ccccc3)NC(=O)OC(C)(C)C)CC2)[C@H](c2cccc(Cl)c2F)[C@@]12C(=O)Nc1cc(Cl)ccc12 (stereo partly drawn) [MI-908] |  |  |  |  |  | > 30 | 5.3 | > 10 | 4.3 | IC50 [1, 19]: ~30 µM; IC50 [1, 9]: 22.5 µM
CN(C)C[C@@H](O)CCNC(=O)[C@@H]1N[C@H](CC(C)(C)C)[C@]2(C(=O)Nc3cc(Cl)c(F)cc32)[C@H]1c1ccc(F)c(Cl)c1 [MI-319-28] |  |  |  |  |  |  |  |  |  | IC50 [1, 20]: < 5 µM; IC50 [1, 21]: > 5 µM; IC50 [2, 22]: > 5 µM; IC50 [2, 23]: < 5 µM; IC50 [3, 24]: < 5 µM
CC(C)(C)C[C@H]1N[C@@H](C(=O)NCC[C@H](O)C=O)[C@H](c2cccc(Cl)c2)[C@@]12C(=O)Nc1cc(Cl)c(F)cc12 [MI-219-M1 (a)] |  |  |  |  |  | > 10 | < 3 | < 1 | < 3 | IC50 [1, 19]: > 10 µM
CCCCC(C)(C)C[C@H]1N[C@@H](C(=O)NCC[C@H](O)CO)[C@H](c2cccc(Cl)c2)[C@@]12C(=O)Nc1cc(Cl)c(F)cc12 [MI-724] | 1.2 ± 0.4 | 3.9 ± 0.2 | 5.3 ± 0.3 | 1.1 ± 0.5 | < 1 |  |  |  |  | 
CC(C)CC(C)(C)C[C@H]1N[C@@H](C(=O)NCC[C@H](O)CO)[C@H](c2ccc(F)c(Cl)c2)[C@@]12C(=O)Nc1cc(F)c(F)cc12 [MI-736] | 0.9 | 6.3 ± 1.2 | 4.4 ± 0.9 | 1 ± 0.2 | < 1 |  |  |  |  | 
CC(=O)N1CCN(C(=O)[C@@H]2N[C@H](CC(C)(C)C)[C@]3(C(=O)Nc4cc(Cl)c(F)cc43)[C@H]2c2cccc(Cl)c2)CC1 [MI-742] |  |  |  |  |  | 19.9 ± 10.3 | 1.7 ± 0.1 | < 10 | 2.2 ± 0.3 | IC50 [1, 19]: 10.2 ± 4.8 µM
CC(C)(C)C[C@H]1N[C@@H](C(=O)NCC2CC(O)C(O)C2)[C@H](c2cccc(Cl)c2)[C@@]12C(=O)Nc1cc(Cl)c(F)cc12 (stereo partly drawn) [MI-519-37] |  |  |  |  |  |  |  | < 1 |  | IC50 ([1]; Table 19A, LNCAP cells, p53 wild-type, cell growth, read-out: LNCAP (p53 wild-type) IC50): 0.6 ± 0.1 µM; IC50 ([1]; Table 19A, PC-3 cells, deleted p53, cell growth, read-out: PC-3 (deleted p53) IC50): 14 ± 2.2 µM; IC50 ([2]; read-out: HCT-116 (p53-/-) IC50, Table 19A, HCT-116 p53-/-, cell growth): 14.9 ± 2 µM; IC50 ([2]; read-out: HCT-116 (p53 wild-type) IC50, Table 19A, HCT-116 p53 wild-type, cell growth): 1 ± 0.5 µM
CN1[C@@H](C(=O)NCC[C@H](O)CO)[C@H](c2cccc(Cl)c2)[C@@]2(C(=O)Nc3cc(Cl)c(F)cc32)[C@H]1CC(C)(C)C [MI-708A] |  |  |  |  | > 3 |  |  |  |  | IC50 ([1]; Table 19B, LNCaP cells, read-out: Inhibition of cell growth IC50, LNCaP): 3.5 µM; IC50 ([1]; Table 19B, PC3 cells, read-out: Inhibition of cell growth IC50, PC3): 83.8 ± 11.3 µM; IC50 ([2]; read-out: Inhibition of cell growth IC50, HCT116 p53 KO, Table 19B, HCT116 p53 KO): 95.6 ± 18.2 µM; IC50 ([2]; read-out: Inhibition of cell growth IC50, HCT116 p53 WT, Table 19B, HCT116 p53 WT): 3.8 ± 1 µM
CC(C)(C)C[C@H]1N[C@@H](C(=O)NCC[C@H](O)CO)[C@H](Cc2ccccc2)[C@@]12C(=O)Nc1cc(Cl)c(F)cc12 [MI-319-23] |  |  |  |  |  |  |  |  |  | IC50 [1, 20]: > 10 µM; IC50 [1, 21]: > 10 µM; IC50 [2, 22]: > 10 µM; IC50 [2, 23]: > 10 µM; IC50 [3, 24]: > 10 µM
CCC[C@H]1N[C@@H](C(=O)NCC[C@H](O)CO)[C@H](c2cccc(Cl)c2)[C@@]12C(=O)Nc1cc(Cl)c(F)cc12 [MI-702] | 1.9 ± 0.3 | 14.3 ± 2.9 | 12.7 ± 2.3 | 5.8 ± 1.7 | > 1 |  |  |  |  | 
CN1[C@@H](C(=O)NCC[C@H](O)CO)[C@H](c2cccc(Cl)c2)[C@@]2(C(=O)Nc3cc(Cl)c(F)cc32)[C@H]1CCC1CCCC1 [MI-713] | 2.7 ± 0.7 | 6.1 ± 2.1 | 4.3 ± 0.7 | 4.9 ± 1.4 | < 10 |  |  |  |  | 
CC(C)(C)C[C@H]1N[C@@H](C(=O)NCC[C@H](O)CO)[C@H](c2ccc(F)c(Cl)c2)[C@@]12C(=O)Nc1cc(F)ccc12 [MI-519-14] |  |  |  |  |  |  |  |  |  | IC50 [1, 13]: < 5 µM; IC50 [1, 14]: > 10 µM; IC50 [2, 15]: > 10 µM; IC50 [2, 16]: < 5 µM; IC50 [3, 17]: < 1 µM
CC(C)CC(C)(C)C[C@H]1N[C@@H](C(=O)NCC[C@H](O)CO)[C@H](c2cccc(Cl)c2)[C@@]12C(=O)Nc1cc(Cl)c(F)cc12 [MI-725] | 0.8 ± 0.1 | 4.7 ± 1 | 5.8 ± 2.9 | 0.7 | < 1 |  |  |  |  | 
CC(C)(C)C[C@H]1N[C@@H](C(=O)NCCN2CCOCC2)[C@H](c2cccc(Cl)c2F)[C@@]12C(=O)Nc1cc(F)c(F)cc12 [MI-721] | 1.4 | 15.2 ± 1.4 | 18.4 ± 5.4 | 1.5 ± 0.3 | < 3 |  |  |  |  | 
CC[C@H](C)[C@H](N)C(=O)OC1CCC(NC(=O)[C@@H]2N[C@H](CC(C)(C)C)[C@]3(C(=O)Nc4cc(Cl)ccc43)[C@H]2c2cccc(Cl)c2F)CC1 (stereo partly drawn) [MI-904] |  |  |  |  |  | 6.1 | < 3 | < 1 | < 3 | IC50 [1, 19]: 3.1 µM; IC50 [1, 9]: < 3 µM
O=C(NCC[C@H](O)CO)[C@@H]1N[C@H](CCCc2ccccc2)[C@]2(C(=O)Nc3cc(Cl)c(F)cc32)[C@H]1c1cccc(Cl)c1 [MI-704] | 6.8 ± 0.2 | 18 ± 5.1 | 12.1 ± 1 | 3 ± 0.9 | > 1 |  |  |  |  | 
O=C(NCC[C@H](O)CO)[C@H]1[C@H](c2cccc(Cl)c2)[C@@]2(C(=O)Nc3cc(Cl)c(F)cc32)[C@H]2CC3(CCCC3)CCN12 [MI-319-38] |  |  |  |  |  |  |  |  |  | IC50 [1, 20]: > 5 µM; IC50 [1, 21]: > 10 µM; IC50 [2, 22]: > 10 µM; IC50 [2, 23]: > 10 µM; IC50 [3, 24]: > 3 µM
CC(C)(C)C[C@H]1N[C@@H](C(=O)NCC[C@H](O)COC(=O)CC(=O)O)[C@H](c2ccc(F)c(Cl)c2)[C@@]12C(=O)Nc1cc(Cl)c(F)cc12 [MI-319-26] |  |  |  |  |  |  |  |  |  | IC50 [1, 20]: < 5 µM; IC50 [1, 21]: > 10 µM; IC50 [2, 22]: > 10 µM; IC50 [2, 23]: < 5 µM; IC50 [3, 24]: < 1 µM
